# From PubChem BioAssay (NCI)
#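 Growth conditions: 96-well plates. Treatment: test compound, 48 hours, 5 concentrations. Analysis: linear interpolation between bracketing concentrations; unreached endpoints set to highest concentration. Abbreviation: GI50, concentration required for 50% inhibition of growth. TGI: total growth inhibition.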
# Tests used:
# Experiment in all cases: DTP human tumour cell line panel, 48 h
# [1] = system: 786-0 renal
# [2] = system: A498 renal
# [3] = system: A549 NSCLC
# [4] = system: ACHN renal
# [5] = system: BT-549 breast
# [6] = system: CAKI-1 renal
# [7] = system: CCRF-CEM leukemia
# [8] = system: COLO 205 colon
# [9] = system: DU-145 prostate
# [10] = system: EKVX NSCLC
# [11] = system: HCC-2998 colon
# [12] = system: HCT-116 colon
# [13] = system: HCT-15 colon
# [14] = system: HL-60(TB) leukemia
# [15] = system: HOP-62 NSCLC
# [16] = system: HOP-92 NSCLC
# [17] = system: HS 578T breast
# [18] = system: HT29 colon
# [19] = system: IGROV1 ovarian
# [20] = system: K-562 leukemia
# [21] = system: KM12 colon
# [22] = system: LOX IMVI melanoma
# [23] = system: M14 melanoma
# [24] = system: MALME-3M melanoma
# [25] = system: MCF7 breast
# [26] = system: MDA-MB-231 breast
# [27] = system: MDA-MB-435
# [28] = system: MOLT-4 leukemia
# [29] = system: NCI-H226 lung
smiles,measurement,setting,value
CCOC(=O)c1ccc2[nH]c(Cc3[nH]c4ccc(C(=O)OCC)cc4c3C)c(C)c2c1,GI50,[1],4.51 µM
same,TGI,[1],31.4 µM
same,GI50,[2],5.45 µM
same,TGI,[2],23.1 µM
same,GI50,[3],1.05 µM
same,TGI,[3],5.87 µM
same,GI50,[4],2.28 µM
same,TGI,[4],15.8 µM
same,GI50,[5],11.6 µM
same,TGI,[5],37 µM
same,GI50,[6],1.55 µM
same,TGI,[6],22.9 µM
same,GI50,[7],1.58 µM
same,TGI,[7],28.7 µM
same,GI50,[8],2.51 µM
same,TGI,[8],21.2 µM
same,GI50,[9],3.37 µM
same,TGI,[9],17.5 µM
same,GI50,[10],5.09 µM
same,TGI,[10],26.4 µM
same,GI50,[11],4.35 µM
same,TGI,[11],59.3 µM
same,GI50,[12],0.556 µM
same,TGI,[12],8.58 µM
same,GI50,[13],0.129 µM
same,TGI,[13],21.4 µM
same,GI50,[14],3.81 µM
same,TGI,[14],46.8 µM
same,GI50,[15],2.58 µM
same,TGI,[15],14.7 µM
same,GI50,[16],1.95 µM
same,TGI,[16],8.99 µM
same,GI50,[17],3.29 µM
same,TGI,[17],23.1 µM
same,GI50,[18],0.821 µM
same,TGI,[18],8.2 µM
same,GI50,[19],2.35 µM
same,TGI,[19],17 µM
same,GI50,[20],0.832 µM
same,TGI,[20],17.5 µM
same,GI50,[21],1.51 µM
same,TGI,[21],20.7 µM
same,GI50,[22],0.384 µM
same,TGI,[22],5.72 µM
same,GI50,[23],5.98 µM
same,TGI,[23],34.1 µM
same,GI50,[24],3.73 µM
same,TGI,[24],17.7 µM
same,GI50,[25],1.98 µM
same,TGI,[25],22.6 µM
same,GI50,[26],2.4 µM
same,TGI,[26],12.3 µM
same,GI50,[27],3.53 µM
same,TGI,[27],48.8 µM
same,GI50,[28],1.83 µM
same,TGI,[28],26.8 µM
same,GI50,[29],4.7 µM
same,TGI,[29],23.2 µM
